# Experimental data published in patent publication US10618901B2 (GlaxoSmithKline Intellectual Property Development Limited, priority 2014, dated 2020).
# Target: T1, LRRK2 Ser935 phosphorylation in SH-SY5Y cells over-expressing recombinant full length LRRK2 (Homo sapiens, UniProt Q5S007)
# T1 construct: A BacMam virus expressing full length recombinant LRRK2 was purchased from Invitrogen; host or cells: SH-SY5Y (BacMam transduction)
# Experiment: Recombinant cellular LRRK2 AlphaScreen assay
# Type: cell-based
# Details: read-out: pIC50 in the recombinant cellular LRRK2 alphaScreen assay (converted)
# From the text: Recombinant Cellular LRRK2 AlphaScreen Assay
# To determine the activity of compounds against LRRK2 kinase activity in cells, the observed LRRK2 kinase-dependent modulation of LRRK2 Ser 935 phosphorylation (Dzamko et al., 2010, Biochem. J. 430: 405-413) was utilized to develop a quantitative 384 well plate-based immunoassay of LRRK2 Ser935 phosphorylation in the human neuroblastoma cell line SH-SY5Y, engineered to over-express recombinant full length LRRK2 protein.
# A BacMam virus expressing full length recombinant LRRK2 was purchased from Invitrogen and amplified by inoculation of SF-9 cells at MOI 0.3 for 4-5 days in Sf-900 III SFM medium supplemented with 3% fetal bovine serum. Infected cell cultures were then centrifuged at 2000 g for 20 minutes, viral supernatant titer determined by anti-gp64 plaque assay and stored at 4° C.
# Affinity-purified anti-phospho LRRK2 Ser935 sheep polyclonal antibody (Dzamko et al., 2010, Biochem. J. 430: 405-413) was biotinylated by standard methods (PerkinElmer). Anti-LRRK2 rabbit polyclonal antibody was purchased from Novus Biologicals. AlphaScreen Protein A IgG Kit (including acceptor and donor beads) was purchased from Perkin Elmer.
# SH-SY5Y cells were grown in DMEM/F12 medium with 10% dialysed fetal bovine serum and harvested by treatment with 0.5% trypsin-EDTA for 5 minutes at 37° C. followed by centrifugation at 1000 rpm for 4 minutes. The cell pellet was resuspended in Opti-MEM reduced serum media (Invitrogen) at 200,000 cells/ml and mixed with the BacMam LRRK2 virus at M01=50. 50 μl cell solutions were then dispensed to each well of a 384-well plate and incubated at 37° C., 5% CO2 for 24 hours.
# Serial dilutions of test compounds were prepared in Opti-MEM reduced serum media (Invitrogen) and 5.6 ul transferred from compound plate to cell assay plate to achieve a top final assay concentration of 10 uM. DMSO was used in certain wells as controls. Cells were incubated at 37° C., 5% CO2 for 60 minutes. The medium was then removed and cells lysed by addition of 20 ul cell lysis buffer (Cell Signaling Technology) and incubation at 4° C. for 20 minutes. 10 ul of antibody/acceptor bead mix [(1/1000 biotinylated-pS935 LRRK2 antibody, 1/1000 total-LRRK2 antibody, 1/100 Acceptor beads in AlphaScreen detection buffer (25 mM Hepes (pH 7.4), 0.5% Triton X-100, 1 mg/ml Dextran 500 and 0.1% BSA)] was then added to each well and plates incubated for 2 hours at ambient temperature in the dark. 10 μl of donor beads solution (1/33.3 donor beads in AlphaScreen detection buffer) was then added to each well. Following incubation for a further 2 hours at ambient temperature in the dark, plates were read on an EnVision™ plate reader at emission 520-620 nm with excitation 680 nm. Dose response curve data was based on sigmoidal dose-response model.
# T1 sequence (Q5S007 whole entry): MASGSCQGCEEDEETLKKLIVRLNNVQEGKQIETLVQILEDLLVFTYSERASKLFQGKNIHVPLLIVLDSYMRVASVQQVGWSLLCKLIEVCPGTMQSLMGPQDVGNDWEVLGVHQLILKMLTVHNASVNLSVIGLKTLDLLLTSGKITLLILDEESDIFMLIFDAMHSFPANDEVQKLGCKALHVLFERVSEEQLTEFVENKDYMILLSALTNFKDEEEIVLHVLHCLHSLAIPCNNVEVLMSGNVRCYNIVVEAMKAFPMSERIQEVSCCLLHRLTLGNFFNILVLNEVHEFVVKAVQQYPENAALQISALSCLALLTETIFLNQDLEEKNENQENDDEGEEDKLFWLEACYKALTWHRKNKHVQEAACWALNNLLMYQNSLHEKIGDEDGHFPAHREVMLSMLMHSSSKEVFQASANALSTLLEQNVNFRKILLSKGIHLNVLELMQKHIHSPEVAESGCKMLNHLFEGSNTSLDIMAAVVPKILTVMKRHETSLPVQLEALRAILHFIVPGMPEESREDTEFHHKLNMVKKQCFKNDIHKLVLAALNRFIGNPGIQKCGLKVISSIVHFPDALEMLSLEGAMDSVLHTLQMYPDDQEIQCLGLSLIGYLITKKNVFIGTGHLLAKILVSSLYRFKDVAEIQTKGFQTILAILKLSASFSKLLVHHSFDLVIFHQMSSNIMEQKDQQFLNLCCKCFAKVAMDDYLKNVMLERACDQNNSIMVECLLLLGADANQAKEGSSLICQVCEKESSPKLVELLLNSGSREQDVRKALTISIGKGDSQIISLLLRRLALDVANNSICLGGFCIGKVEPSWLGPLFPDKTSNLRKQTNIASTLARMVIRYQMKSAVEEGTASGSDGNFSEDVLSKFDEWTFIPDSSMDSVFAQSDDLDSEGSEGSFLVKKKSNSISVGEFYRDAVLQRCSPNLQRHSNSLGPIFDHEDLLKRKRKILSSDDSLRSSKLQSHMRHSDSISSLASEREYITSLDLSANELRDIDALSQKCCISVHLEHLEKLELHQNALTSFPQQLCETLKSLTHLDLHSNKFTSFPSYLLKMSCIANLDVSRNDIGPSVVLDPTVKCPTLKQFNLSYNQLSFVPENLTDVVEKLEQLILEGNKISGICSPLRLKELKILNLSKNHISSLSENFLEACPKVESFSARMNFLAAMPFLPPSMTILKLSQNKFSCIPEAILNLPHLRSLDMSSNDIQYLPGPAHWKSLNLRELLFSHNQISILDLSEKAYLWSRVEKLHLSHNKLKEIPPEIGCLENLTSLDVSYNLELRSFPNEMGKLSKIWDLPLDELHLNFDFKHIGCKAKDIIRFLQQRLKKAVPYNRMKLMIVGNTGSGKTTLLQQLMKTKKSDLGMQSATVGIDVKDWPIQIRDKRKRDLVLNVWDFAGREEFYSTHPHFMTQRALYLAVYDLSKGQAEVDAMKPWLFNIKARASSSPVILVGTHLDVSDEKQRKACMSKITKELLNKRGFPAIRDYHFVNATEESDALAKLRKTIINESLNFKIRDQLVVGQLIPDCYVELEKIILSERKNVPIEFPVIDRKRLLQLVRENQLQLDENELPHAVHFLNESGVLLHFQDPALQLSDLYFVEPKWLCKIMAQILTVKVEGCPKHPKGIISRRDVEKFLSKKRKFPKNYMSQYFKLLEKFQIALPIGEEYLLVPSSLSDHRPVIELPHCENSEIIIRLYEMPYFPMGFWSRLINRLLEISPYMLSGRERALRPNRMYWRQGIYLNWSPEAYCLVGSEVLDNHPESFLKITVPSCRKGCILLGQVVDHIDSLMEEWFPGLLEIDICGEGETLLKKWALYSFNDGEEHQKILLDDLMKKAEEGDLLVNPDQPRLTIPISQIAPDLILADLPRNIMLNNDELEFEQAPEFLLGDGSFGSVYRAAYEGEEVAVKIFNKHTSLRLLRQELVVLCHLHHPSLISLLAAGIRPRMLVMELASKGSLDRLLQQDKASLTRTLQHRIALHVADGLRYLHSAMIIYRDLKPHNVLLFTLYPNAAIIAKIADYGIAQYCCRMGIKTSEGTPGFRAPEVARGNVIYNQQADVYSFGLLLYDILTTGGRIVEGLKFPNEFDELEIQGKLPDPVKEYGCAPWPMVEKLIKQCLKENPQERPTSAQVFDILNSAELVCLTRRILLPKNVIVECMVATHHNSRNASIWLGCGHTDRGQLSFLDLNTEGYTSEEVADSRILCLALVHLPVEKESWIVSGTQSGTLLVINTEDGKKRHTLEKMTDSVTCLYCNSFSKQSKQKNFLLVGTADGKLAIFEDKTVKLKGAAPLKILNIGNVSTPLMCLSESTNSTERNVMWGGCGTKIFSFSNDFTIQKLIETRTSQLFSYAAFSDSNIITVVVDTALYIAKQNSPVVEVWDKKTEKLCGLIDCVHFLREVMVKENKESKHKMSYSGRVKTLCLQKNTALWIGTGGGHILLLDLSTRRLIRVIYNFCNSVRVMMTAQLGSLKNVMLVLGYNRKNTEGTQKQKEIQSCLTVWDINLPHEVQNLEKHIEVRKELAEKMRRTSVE
row,IC50 [nM],SMILES
1,≤ 100,"CCOc1nc(Nc2cnn(CCN3CC4CC4C3)c2C)nc2[nH]ccc12 (stereo not shown) [Example E10, N-(1-(2-(3-aza-bicyclo-[3.1.0]hexan-3-yl)ethyl)-5-methyl-1H-pyrazol-4-yl)-4-ethoxy-7H-pyrrolo-[2,3-d]pyrimidin-2-amine]"
2,≤ 100,"CCOc1nc(Nc2cnn(CCN3CCO[C@@H](C(F)F)C3)c2C)nc2[nH]ccc12 [Example E99, (R)—N-(1-(2-(2-(difluoromethyl)morpholino)ethyl)-5-methyl-1H-pyrazol-4-yl)-4-ethoxy-7H-pyrrolo[2,3-d]pyrimidin-2-amine]"
3,≤ 100,"CCOc1nc(Nc2cnn([C@H]3CCN(CC(F)F)C3)c2C)nc2[nH]ccc12 [Example E87, (S)—N-(1-(1-(2,2-difluoroethyl)pyrrolidin-3-yl)-5-methyl-1H-pyrazol-4-yl)-4-ethoxy-7H-pyrrolo[2,3-d]pyrimidin-2-amine]"
4,≤ 100,"CCOc1nc(Nc2cnn([C@@H]3CCCN(C4COC4)C3)c2C)nc2[nH]ccc12 [Example E135, (R)-4-ethoxy-N-(5-methyl-1-(1-(oxetan-3-yl)piperidin-3-yl)-1H-pyrazol-4-yl)-7H-pyrrolo [2,3-d]pyrimidin-2-amine]"
5,≤ 100,"CCOc1nc(Nc2cnn(CCN3CC[C@@H](F)C3)c2C)nc2[nH]ccc12 [Example E63, (R)-4-ethoxy-N-(1-(2-(3-fluoropyrrolidin-1-yl)-ethyl)-5-methyl-1H-pyrazol-4-yl)-7H-pyrrolo[2,3-d]pyrimidin-2-amine]"
6,≤ 100,"CCOc1nc(Nc2cnn(C3CN(C4COC4)CCC3(F)F)c2C)nc2[nH]ccc12 (single isomer, unassigned) [Example E119, N-(1-(4,4-difluoro-1-(oxetan-3-yl)piperidin-3-yl)-5-methyl-1H-pyrazol-4-yl)-4-ethoxy-7H-pyrrolo[2,3-d]pyrimidin-2-amine]"
7,≤ 100,"CCOc1nc(Nc2cnn(CCN3CCOC[C@H]3C)c2C)nc2[nH]ccc12 [Example E81, (R)-4-ethoxy-N-(5-methyl-1-(2-(3-methylmorpholino)ethyl)-1H-pyrazol-4-yl)-7H-pyrrolo [2,3-d]pyrimidin-2-amine]"
8,≤ 100,"CCOc1nc(Nc2cnn(C3CC(C)(O)C3)c2C)nc2[nH]ccc12 (stereo not shown) [Example E93, 3-(4-((4-ethoxy-7H-pyrrolo[2,3-d]pyrimidin-2-yl)amino)-5-methyl-1H-pyrazol-1-yl)-1-methylcyclobutanol]"
9,≤ 100,"CCOc1nc(Nc2cnn(CC(C)(C)N3CCOCC3)c2C)nc2[nH]ccc12 [Example E88, 4-ethoxy-N-(5-methyl-1-(2-methyl-2-morpholinopropyl)-1H-pyrazol-4-yl)-7H-pyrrolo[2,3-d]pyrimidin-2-amine]"
10,≤ 100,"CCOc1nc(Nc2cnn(C3CCN(C)CC3)c2C)nc2[nH]ccc12 [Example E18, 4-ethoxy-N-(5-methyl-1-(1-methylpiperidin-4-yl)-1H-pyrazol-4-yl)-7H-pyrrolo-[2,3-d]-pyrimidin-2-amine]"
11,≤ 100,"CCOc1nc(Nc2cnn([C@@H]3CCN(C4COC4)C[C@H]3F)c2C)nc2[nH]ccc12 [Example E98, 4-ethoxy-N-(1-((3R,4R)-3-fluoro-1-(oxetan-3-yl)piperidin-4-yl)-5-methyl-1H-pyrazol-4-yl)-7H-pyrrolo[2,3-d]pyrimidin-2-amine]"
12,≤ 100,"CCOc1nc(Nc2cnn([C@H]3CCCN(C4COC4)C3)c2C)nc2[nH]ccc12 [Example E136, (S)-4-ethoxy-N-(5-methyl-1-(1-(oxetan-3-yl)piperidin-3-yl)-1H-pyrazol-4-yl)-7H-pyrrolo[2,3-d]pyrimidin-2-amine]"
13,≤ 100,"CCOc1nc(Nc2cnn([C@H]3CCN[C@@H](C(F)F)C3)c2C)nc2[nH]ccc12 [Example E95, N-(1-((2R,4S)-2-(difluoromethyl)piperidin-4-yl)-5-methyl-1H-pyrazol-4-yl)-4-ethoxy-7H-pyrrolo[2,3-d]pyrimidin-2-amine]"
14,≤ 100,"CCOc1nc(Nc2cnn([C@@H]3CCO[C@H](C)C3)c2C)nc2[nH]ccc12 (single isomer, unassigned) [Example E42]"
15,≤ 100,"CCOc1nc(Nc2cnn(CC(C)N3CCOCC3)c2C)nc2[nH]ccc12 (single isomer, unassigned) [Example E92]"
16,≤ 100,"CCOc1nc(Nc2cnn([C@@H]3CCN(CC(F)F)C3)c2C)nc2[nH]ccc12 [Example E85, (R)—N-(1-(1-(2,2-difluoroethyl)pyrrolidin-3-yl)-5-methyl-1H-pyrazol-4-yl)-4-ethoxy-7H-pyrrolo[2,3-d]pyrimidin-2-amine]"

# The next lines start with the compound.
row,SMILES,IC50 [nM]
1,"CCOc1nc(Nc2cnn([C@@H]3CCN(C)C3)c2C)nc2[nH]cc(C#N)c12 [Example E51, (R)-4-ethoxy-2-((5-methyl-1-(1-methyl-pyrrolidin-3-yl)-1H-pyrazol-4-yl)-amino)-7H-pyrrolo-[2,3-d]pyrimidine-5-carbonitrile]",≤ 100
2,"CCOc1nc(Nc2cn(CCOC)nc2C)nc2[nH]ccc12 [Example E8, 4-ethoxy-N-(1-(2-methoxyethyl)-3-methyl-1H-pyrazol-4-yl)-7H-pyrrolo-[2,3-d]-pyrimidin-2-amine]",≤ 100
3,"CCOc1nc(Nc2cnn([C@@H]3C[C@H](F)CN(C4COC4)C3)c2Cl)nc2[nH]ccc12 [Example E151, N-(5-chloro-1-((3R,5S)-5-fluoro-1-(oxetan-3-yl)piperidin-3-yl)-1H-pyrazol-4-yl)-4-ethoxy-7H-pyrrolo[2,3-d]pyrimidin-2-amine]",≤ 100
4,"CCOc1nc(Nc2cnn(C3CN(C4COC4)CCO3)c2Cl)nc2[nH]ccc12 (racemic) [Example E140, (±)-N-(5-chloro-1-(4-(oxetan-3-yl)morpholin-2-yl)-1H-pyrazol-4-yl)-4-ethoxy-7H-pyrrolo [2,3-d]pyrimidin-2-amine]",≤ 100
5,"CCOc1nc(Nc2cnn(C3CC(N4CCOCC4)CCC3(F)F)c2Cl)nc2[nH]ccc12 (racemic) [Example E145, (±)-trans-N-(5-chloro-1-(2,2-difluoro-5-morpholinocyclohexyl)-1H-pyrazol-4-yl)-4-ethoxy-7H-pyrrolo[2,3-d]pyrimidin-2-amine]",≤ 100
6,"CCOc1nc(Nc2cnn(C3CCN(C4COC4)CC3(C)F)c2C)nc2[nH]ccc12 (single isomer, unassigned) [Example E138, (4-ethoxy-7H-pyrrolo[2,3-d]pyrimidin-2-yl)-[1-(3-fluoro-3-methyl-1-oxetan-3-yl-piperidin-4-yl)-5-methyl-1H-pyrazol-4-yl]-amine]",≤ 100
7,"CCOc1nc(Nc2cnn([C@H]3CCN(C)C3)c2C)nc2[nH]cc(C#N)c12 [Example E49, (S)-4-ethoxy-2-((5-methyl-1-(1-methyl-pyrrolidin-3-yl)-1H-pyrazol-4-yl)-amino)-7H-pyrrolo-[2,3-d]pyrimidine-5-carbonitrile]",≤ 100
8,"CCOc1nc(Nc2cnn(C3CNCCO3)c2Cl)nc2[nH]ccc12 (single isomer, unassigned) [Example E143, N-(5-chloro-1-(morpholin-2-yl)-1H-pyrazol-4-yl)-4-ethoxy-7H-pyrrolo[2,3-d]pyrimidin-2-amine]",≤ 100
9,"CCOc1nc(Nc2cnn(C3CCC(N4CCOCC4)C3)c2C)nc2[nH]ccc12 (single isomer, unassigned) [Example E108, (trans)-4-ethoxy-N-(5-methyl-1-(3-morpholinocyclopentyl)-1H-pyrazol-4-yl)-7H-pyrrolo[2,3-d]pyrimidin-2-amine]",≤ 100
10,"CCOc1nc(Nc2cnn(CCOC)c2C)nc2[nH]cc(C#N)c12 [Example E47, 4-ethoxy-2-((1-(2-methoxyethyl)-5-methyl-1H-pyrazol-4-yl)-amino)-7H-pyrrolo-[2,3-d]-pyrimidine-5-carbonitrile]",≤ 100
11,"CCOc1nc(Nc2cnn(C3CCC(N4CCOCC4)C3)c2Cl)nc2[nH]ccc12 (single isomer, unassigned) [Example E110, (trans)-N-(5-chloro-1-(3-morpholinocyclopentyl)-1H-pyrazol-4-yl)-4-ethoxy-7H-pyrrolo [2,3-d]pyrimidin-2-amine]",≤ 100
12,"CCOc1nc(Nc2cn(C)nc2C)nc2[nH]ccc12 [Example E1, N-(1,3-dimethyl-1H-pyrazol-4-yl)-4-ethoxy-7H-pyrrolo[2,3-d]pyrimidin-2-amine]",≤ 100
